The text below walks through data of US5468772A, “Tripterinin compound and method” (Pharmagenesis, Inc., priority 1993, dated 1995).

Test [1] concerns human peripheral blood lymphocytes. Briefly: Suppression of human PBL proliferation in vitro ([3H]thymidine incorporation), with or without anti-CD3 (X-35). The format is cell-based. Here is the method: One measure of immunosuppression is suppression of stimulated peripheral blood lymphocyte (PBL) proliferation in vitro. In the assay detailed in Example 3, PBLs were activated in vitro by addition of anti-CD3 monoclonal antibody (X-35 antibody). At the same time, purified tripterinin or vehicle (control) was added to each culture, at selected concentrations. After 72 hours incubation, tritiated thymidine was added to the culture medium, and thymidine incorporation into DNA was assayed, as a measure of DNA synthesis associated with cell proliferation.
The ability of tripterifordin to inhibit anti-CD3 stimulated PBL proliferation was assayed at concentrations of 0, 0.78, 3.13, and 12.5 μg/ml, with the results shown in FIG. 9.
Human peripheral blood lymphocytes were prepared using an established method (Boyum). Human blood buffy coat samples, approximately 25 ml/donor, were obtained from the Stanford University Medical Center Blood Bank. Using sterile technique, the buffy coat samples were gently resuspended in a total volume of 100 ml with the addition of calcium and magnesium free Hank's balanced salt solution (HBSS, obtained from Gibco) at room temperature. A volume of 25 ml of the cell suspension was then layered onto 15 ml of Ficoll-Pacque (Pharmacia LKB Biotechnology, Inc.) in a 50 ml conical centrifuge tube. Tubes were centrifuged in a Beckman GPR tabletop centrifuge (GH-3.7 Rotor) at 400×g for 30 minutes at 15° C.
Following centrifugation, the PBL suspensions at the interfaces were transferred to new 50 ml tubes using a transfer pipette, and the PBL samples were resuspended in a total volume of 45 ml HBSS and centrifuged at 354×g for 10 minutes at 15° C. Supernatants were discarded. PBL's were resuspended in 10 ml HBSS, combined to make a total of 45 ml HBSS, and centrifuged at 265×g for 10 minutes at 15° C. The cell pellets were suspended in 10 ml of X-Vivo tissue culture medium (Bio Whittaker) and counted using a hemocytometer. Tissue culture medium was then added to achieve a final cell concentration of 1× 10^6 cells/ml. Additional dilutions were carried out as required for each assay.
Assays were carried out in 96 well sterile tissue culture plates (Costar 3790 and Costar 3595). A volume of 150 μl of X-Vivo medium or sterile distilled water was added to the outer wells of the plate to prevent evaporation of medium within the experimental wells. PBL's from 2 different donors were used in parallel in all experiments. A volume of 100 μl PBL suspension was added to each well using a multichannel pipette. Plates were incubated in an atmosphere of 93% air/7% CO2 in a tissue culture incubator at 37° C. X-35 (AMAC #0178), an anti CD-3 surface antigen antibody, was used at 5 ng/ml to stimulate PBL proliferation.
Tripterinin or tripterifordin was dissolved in ethanol (10 mg/ml) and then diluted in sterile X-Vivo tissue culture medium to obtain the final concentrations required for each experiment.
Four hours prior to the conclusion of incubation, 50 μl of X-Vivo tissue culture medium containing 8 μCi/ml [^3 H]Thymidine (Amersham, 49 Ci/mmol) was added to each tissue culture well. After 72 hours total incubation time, the cells were removed from the tissue culture wells and applied to filter paper using a cell harvester (Brandel Model MB-24). The filter paper was dried for one hour under a heat lamp and then cut into 1 cm discs. Each sample was placed in a scintillation vial containing 2 ml of scintillation fluid (Biosafe, Research Products International Corp.). Samples were counted in a Beckman LS 6000SC scintillation counter.
On the technique in general: Uptake of a labelled nucleoside into DNA is a usual measure of proliferation.

The test system of test [2] is IL2. In words: IL-2 production by PHA stimulated human PBLs (ELISA). Format: cell-based. The conditions noted are these: 24 h. As for the experimental part:
The effect of tripterinin on the production of the cytokines IL-1b, IL2, IL-6, IFNγ, and TNFα was assessed by measurement of the concentration of these cytokines in PHA stimulated human PBL cultures. Cytokine levels were measured by standard ELISA methods using commercially available kits, as detailed in Example 6. Briefly, assay buffer was added to each of the wells of a microtiter plate containing pre-bound anti-cytokine antibody, followed by addition of standard or sample solution, diluted appropriately for the cytokine concentration measured, followed by a second reporter-labeled antibody specific against the anti-cytokine antibody. […]
Cytokine measurements were carried out using commercially available ELISA assay kits (R&D Systems), in accordance with the supplier's protocols. In brief, 100 μl of the assay buffer supplied was added to each of the wells of a microtiter plate containing pre-bound anti-cytokine antibody, followed by 100 μl of standard or sample solution, diluted appropriately for the concentration range measured. […]
Following two hours incubation, the plates were washed four times with assay buffer, and the second antibody, anti-anti-cytokine-horseradish peroxidase (HRP), was added to each well in a volume of 200 μl. […] Optical density was determined using a Molecular Devices microtiter plate reader.
A general note: An ELISA detects its analyte on a solid surface through an enzyme-linked reagent.

Regarding `C[C@]12CCC[C@]3(COC1=O)[C@@H]2CC[C@@]12C[C@@H](CC[C@]13O)[C@](C)(O)C2` [tripterinin], in test [1] (0.78 μg/ml tripterinin, unstimulated and anti-CD3 stimulated PBLs), the “inhibition of PBL proliferation” value is listed as “substantially complete inhibition”. The “Half maximal inhibition of PBL proliferation” value in test [1] (FIG. 8, 72 h) is listed as “approximately 0.5 μg/ml”. Also, the “inhibitory effect on PBL proliferation” value in test [1] (stimulated and unstimulated (tripterinin), FIG. 9 (tripterifordin)) was “inhibited PBL proliferation”. The “inhibition of PBL proliferation, dose dependence” value in test [1] (unstimulated and anti-CD3 stimulated PBLs) is “dose dependent inhibition”. The “decrease in IL2 production” value in test [2] (0.7 μg/ml tripterinin) and in test [2] (3.13 μg/ml tripterinin) was 96% throughout.
